Laboratory results from patent US10561703B2, “Method of modulating sex hormone levels using a sex hormone secretion modulator” (GEMVAX & KAEL CO., LTD., priority 2013, dated 2020).

System: LH
Experiment: LH level in blood (serum CLIA) after repeated sc PEP-1
Type: in vivo, SD rats
Description: PEP-1 (peptide of SEQ ID NO: 1), lyophilized white powder, obtained according to the method mentioned in example 1 was dissolved in 0.9% of saline, considering the correction factor of PEP-1 (purity: 94.13%, content: 92.36%, correction factor: 1.15). 50 mg/mL stock solution was further diluted into 20 mg/mL, 2 mg/mL, and 1 mg/mL with 0.9% saline, and stored at 4° C. for a week until the use.
The purpose of this example is to confirm the change of sexual hormones in blood from SD rats with 7 days repeated daily administration of SEQ ID NO: 1 peptide, PEP-1. This experiment followed the Ethics Regulation of Animal Test by KAMSI Inc. (Korea Animal Medical Science Institute). In addition, this experiment, Non-GLP experiment, referred to the MFDS (Ministry of Food and Drug Safety) notification; Agent 2013-40 (5th April 2013), Principles of Good Laboratory Practice (1997).
SPF Rats (Crlj:CD(SD)) were purchased from ORIENTBio Inc. (Mokdong-ri, Buk-myeon, Gapyeong-gun, Gyeonggi-do, Republic of Korea). 75 male (6.5 weeks old and 190˜210 g) and 75 female (6.5 weeks old and 160˜180 g) rats were monitored for 4 days, and 64 of male and female rats (each) were selected for the experiment. Raising condition is as follows; 23±3° C. of temperature, […] of relative humidity, 10˜20 times/hr of number of air changes, 12 hours (8 a.m.˜8 p.m.) of lighting with 150˜300 Lux of intensity.
64 male and female […] (mentioned above) were divided into 8 groups. Administration regimen, for example, drugs, routes, dosages, and volumes were as follows:
The detailed administration regimen is as follows; once a day, twice a day and twice a week in each experimental group. Injection initiated at 10 a.m. every day, and each rat was injected at one minute intervals. Rats in Group 9, 10, 13 and 14 were injected twice a week. Administration of high dose test agent preceded that of low dose. The volume of injection was calculated using recently measured weight of rats, and it was 5 mL/kg. Subcutaneous injection was performed as follows; assistant tilted the back of rat upward, and experimenter sterilized the back of rat with 70% alcohol, followed by subcutaneous injection of test agent with 26 G syringe.
1.4 mL of blood sample (0.7 mL of serum) was collected after measurement of weight (Day 0). Next day (1 Day), 1.4 mL of blood sample (0.7 mL of serum) was collected twice after injection of test agent (4 hrs and 8 hrs after administration of test agent). For next 6 days (Day 2˜Day 7), 1.4 mL of blood was extracted once everyday (4 hours after injection of test agent). Dose and volume of test agent of each group followed the Table 3, and injection time zone was same every day. Blood was extracted from the jugular vein, and left at room temperature for 30 minutes. Serum was separated using centrifugation (10,000 rpm for 5 minutes), and stored at −70±5° C. in Deep freezer until the use. Blood extraction from each subject was done in the same time zone every day.
A CLIA (Chemi-Luminescence Immune Assay) Kit was used to analyze Testosterone, Estradiol E2, FSH (Follicle stimulating hormone), and LH (Luteinizing hormone). Analysis was completed within 48 hrs after blood extraction (Laboratory Medicine Department, Chung-Ang University Hospital), and detailed method is as follows; One-way ANOVA was used to verify the comparison between the vehicle and PEP-1, and between different doses of PEP-1. For further analysis, Duncan test was used as parametric test and Dunnett's test as non-parametric test. p<0.05 represents the statistical significance, and all statistical analysis was carried out with SPSS 10.1.
LH was analyzed using the samples prepared from example 2. 50 μL of serum was used for analysis. Fundamentals of analysis is Two-site sandwich immunoassay based on direct chemi-luminescent. As mentioned in example 2, CLIA (Chemi-luminescence immune assay) Kit was used, following the manufacture's protocol.

EARPALLTSRLRFIPK (listed as Homo sapiens) [PEP-1, hormone secretion modulator / GnRH analog]
LH level in blood (G3 Male 5 mg/kg sc 1/day x7, 7 days): 0.13 mIU/mL | LH level in blood (G4 Female 5 mg/kg sc 1/day x7, 4 hr): 0.16 mIU/mL | LH level in blood (G4 Female 5 mg/kg sc 1/day x7, 8 hr): 0.24 mIU/mL | LH level in blood (G4 Female 5 mg/kg sc 1/day x7, 2 days): 0.19 mIU/mL | LH level in blood (G4 Female 5 mg/kg sc 1/day x7, 3 days): 0.13 mIU/mL | LH level in blood (G4 Female 5 mg/kg sc 1/day x7, 4 days): 0.13 mIU/mL | LH level in blood (G4 Female 5 mg/kg sc 1/day x7, 5 days): 0.14 mIU/mL | LH level in blood (G4 Female 5 mg/kg sc 1/day x7, 6 days): 0.14 mIU/mL | LH level in blood (G4 Female 5 mg/kg sc 1/day x7, 7 days): 0.16 mIU/mL | LH level in blood (G4 Female 5 mg/kg sc 1/day x7, pre): 0.12 mIU/mL | LH level in blood (G6 Female 10 mg/kg sc 1/day x7, 4 hr): 0.41 mIU/mL | LH level in blood (G6 Female 10 mg/kg sc 1/day x7, 8 hr): 0.26 mIU/mL | LH level in blood (G6 Female 10 mg/kg sc 1/day x7, 2 days): 0.22 mIU/mL | LH level in blood (G6 Female 10 mg/kg sc 1/day x7, 3 days): 0.19 mIU/mL | LH level in blood (G6 Female 10 mg/kg sc 1/day x7, 4 days): 0.15 mIU/mL | LH level in blood (G6 Female 10 mg/kg sc 1/day x7, 5 days): 0.15 mIU/mL | LH level in blood (G6 Female 10 mg/kg sc 1/day x7, 6 days): 0.17 mIU/mL | LH level in blood (G6 Female 10 mg/kg sc 1/day x7, 7 days): 0.16 mIU/mL | LH level in blood (G6 Female 10 mg/kg sc 1/day x7, pre): 0.12 mIU/mL | LH level in blood (G8 Female 10 mg/kg sc 2/day x4, 4 hr): 0.22 mIU/mL | LH level in blood (G8 Female 10 mg/kg sc 2/day x4, 8 hr): 0.15 mIU/mL | LH level in blood (G8 Female 10 mg/kg sc 2/day x4, 2 days): 0.17 mIU/mL | LH level in blood (G8 Female 10 mg/kg sc 2/day x4, 3 days): 0.28 mIU/mL | LH level in blood (G8 Female 10 mg/kg sc 2/day x4, 4 days): 0.13 mIU/mL | LH level in blood (G8 Female 10 mg/kg sc 2/day x4, 5 days): 0.23 mIU/mL | LH level in blood (G8 Female 10 mg/kg sc 2/day x4, 6 days): 0.15 mIU/mL | LH level in blood (G8 Female 10 mg/kg sc 2/day x4, 7 days): 0.28 mIU/mL | LH level in blood (G8 Female 10 mg/kg sc 2/day x4, pre): 0.13 mIU/mL | LH level in blood (G9 Male 10 mg/kg sc 2/week x2 (days 1,7), 4 hr): 0.62 mIU/mL | LH level in blood (G9 Male 10 mg/kg sc 2/week x2 (days 1,7), 8 hr): 0.14 mIU/mL | LH level in blood (G9 Male 10 mg/kg sc 2/week x2 (days 1,7), 2 days): 0.12 mIU/mL | LH level in blood (G9 Male 10 mg/kg sc 2/week x2 (days 1,7), 3 days): 0.12 mIU/mL | LH level in blood (G9 Male 10 mg/kg sc 2/week x2 (days 1,7), 4 days): 0.13 mIU/mL | LH level in blood (G9 Male 10 mg/kg sc 2/week x2 (days 1,7), 5 days): 0.14 mIU/mL | LH level in blood (G9 Male 10 mg/kg sc 2/week x2 (days 1,7), 6 days): 0.11 mIU/mL | LH level in blood (G9 Male 10 mg/kg sc 2/week x2 (days 1,7), 7 days): 0.67 mIU/mL | LH level in blood (G9 Male 10 mg/kg sc 2/week x2 (days 1,7), pre): 0.12 mIU/mL | LH level in blood (G10 Female 10 mg/kg sc 2/week x2 (days 1,7), 4 hr): 0.25 mIU/mL | LH level in blood (G10 Female 10 mg/kg sc 2/week x2 (days 1,7), 8 hr): 0.23 mIU/mL | LH level in blood (G10 Female 10 mg/kg sc 2/week x2 (days 1,7), 2 days): 0.17 mIU/mL | LH level in blood (G10 Female 10 mg/kg sc 2/week x2 (days 1,7), 3 days): 0.14 mIU/mL | LH level in blood (G10 Female 10 mg/kg sc 2/week x2 (days 1,7), 4 days): 0.13 mIU/mL | LH level in blood (G10 Female 10 mg/kg sc 2/week x2 (days 1,7), 5 days): 0.15 mIU/mL | LH level in blood (G10 Female 10 mg/kg sc 2/week x2 (days 1,7), 6 days): 0.12 mIU/mL | LH level in blood (G10 Female 10 mg/kg sc 2/week x2 (days 1,7), 7 days): 0.26 mIU/mL | LH level in blood (G10 Female 10 mg/kg sc 2/week x2 (days 1,7), pre): 0.25 mIU/mL | LH level in blood (G11 Male 100 mg/kg sc 1/day x7, 4 hr): 1.16 mIU/mL | LH level in blood (G11 Male 100 mg/kg sc 1/day x7, 8 hr): 0.18 mIU/mL | LH level in blood (G11 Male 100 mg/kg sc 1/day x7, 2 days): 0.28 mIU/mL | LH level in blood (G11 Male 100 mg/kg sc 1/day x7, 3 days): 0.23 mIU/mL | LH level in blood (G11 Male 100 mg/kg sc 1/day x7, 4 days): 0.18 mIU/mL
